Tests used:
MV4-11 cells = experiment: Cell proliferation assay MV4;11 (CellTiter-Glo, 72 hours); assay type: cell-based; details: Homo sapiens; MV4;11 leukemia cell line, 72 hours; read-out: MV4; 11 IC50
Procedure: Compounds were evaluated for its capacity to inhibit the proliferation of the MLLr leukemia cell line MV4-11 that harbors an MLL1-AF4 fusion protein. MV4-11 cells were cultured for 72 hours with limiting dilutions of compounds and viability was measured using CellTiter-Glo.
Compounds were dissolved to obtain as 10 mM solution in DMSO. The stock was diluted 1:5 to the top concentration of 2 mM in 100% DMSO. For IC50 determination, serial 1:3.16 dilutions were prepared in 100% DMSO by diluting 20 μL into 43.5 μL of DMSO for 8 concentrations. Each prepared DMSO solution were further diluted 1:500 in the cell culture media to obtain the 2× dosing solutions. The final concentrations of tested compounds in the cell culture media ranged from 0.632 nM to 2000 nM.
MV4-11 cells were cultured in IMDM with 10% FBS and 1× Penicillin-Streptomycin at 5% CO2 and 37° C. A cell suspension was prepared containing 15,000 cells/ml in the culture medium and 100 μL of this suspension was added per well to a 96-well cell culture plate. Then, 100 μL of 2× dosing media containing test compounds were added bringing the total volume to 200 μL. These cells were cultured for 72 hours at 37° C. and 5% CO2 in a humidified incubator.
After 72 hours, the cultured cells were mixed and 100p L was transferred to a 96-well black plate. Cell Titer Glo (100 μl) was then added to this plate. The plate was mixed with shaking for 15 mins at RT, the luminescence was then measured using Tecan Spark 20M spectrophotometer. Cell Viability (%) was determined by RLU of test/RLU average vehicle control*100 and % max inhibition was determined by 100−(% cell viability remaining at the top concentration of compound).

hERG = hERG (Homo sapiens (Human), UniProt Q12809); experiment: Patch clamp assay (hERG tail currents, whole-cell); assay type: cell-based; details: hERG transfected HEK 293 cells; for hERG % Remaining 30 μM: 30 μM compound
hERG, sequence (Q12809 whole entry): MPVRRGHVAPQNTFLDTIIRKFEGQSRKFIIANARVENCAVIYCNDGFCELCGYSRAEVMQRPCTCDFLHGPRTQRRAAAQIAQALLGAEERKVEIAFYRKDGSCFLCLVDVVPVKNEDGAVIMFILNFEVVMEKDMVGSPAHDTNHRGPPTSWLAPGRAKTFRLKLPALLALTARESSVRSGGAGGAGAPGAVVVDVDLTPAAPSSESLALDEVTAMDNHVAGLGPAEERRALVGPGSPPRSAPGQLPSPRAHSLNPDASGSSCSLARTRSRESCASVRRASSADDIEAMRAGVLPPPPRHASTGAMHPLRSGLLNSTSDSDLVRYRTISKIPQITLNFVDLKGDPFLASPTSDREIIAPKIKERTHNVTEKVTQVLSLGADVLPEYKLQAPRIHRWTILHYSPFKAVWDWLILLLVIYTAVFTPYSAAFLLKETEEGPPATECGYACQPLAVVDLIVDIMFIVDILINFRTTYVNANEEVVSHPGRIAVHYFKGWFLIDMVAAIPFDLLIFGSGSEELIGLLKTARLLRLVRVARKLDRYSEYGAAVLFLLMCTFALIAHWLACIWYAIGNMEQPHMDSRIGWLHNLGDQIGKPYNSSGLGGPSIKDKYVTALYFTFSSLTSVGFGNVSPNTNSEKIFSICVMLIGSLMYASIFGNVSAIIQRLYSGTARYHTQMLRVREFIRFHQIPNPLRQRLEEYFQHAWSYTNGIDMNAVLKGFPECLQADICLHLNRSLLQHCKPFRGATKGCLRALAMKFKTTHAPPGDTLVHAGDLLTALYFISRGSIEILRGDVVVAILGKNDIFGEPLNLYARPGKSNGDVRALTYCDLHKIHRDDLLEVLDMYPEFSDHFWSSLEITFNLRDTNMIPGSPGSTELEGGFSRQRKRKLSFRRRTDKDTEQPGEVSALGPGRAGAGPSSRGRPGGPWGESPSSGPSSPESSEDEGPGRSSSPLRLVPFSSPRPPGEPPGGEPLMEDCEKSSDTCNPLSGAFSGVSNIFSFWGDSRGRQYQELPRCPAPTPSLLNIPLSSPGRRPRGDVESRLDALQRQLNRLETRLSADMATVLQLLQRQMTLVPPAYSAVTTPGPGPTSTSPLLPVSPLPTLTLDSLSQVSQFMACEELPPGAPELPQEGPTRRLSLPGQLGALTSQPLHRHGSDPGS

Menin-MLL = Menin-MLL (Homo sapiens (Human), UniProt O00255); experiment: Determination of binding constants (Ki) to Menin-MLL (HTRF); details: HTRF, 0.25 nM H-FL-Menin, 3.2 nM FITC-MLL-4-43, 24 hr incubation; for Ki: read-out: Menin-MLL Ki HTRF Assay: Ki
Menin-MLL, sequence (O00255 whole entry): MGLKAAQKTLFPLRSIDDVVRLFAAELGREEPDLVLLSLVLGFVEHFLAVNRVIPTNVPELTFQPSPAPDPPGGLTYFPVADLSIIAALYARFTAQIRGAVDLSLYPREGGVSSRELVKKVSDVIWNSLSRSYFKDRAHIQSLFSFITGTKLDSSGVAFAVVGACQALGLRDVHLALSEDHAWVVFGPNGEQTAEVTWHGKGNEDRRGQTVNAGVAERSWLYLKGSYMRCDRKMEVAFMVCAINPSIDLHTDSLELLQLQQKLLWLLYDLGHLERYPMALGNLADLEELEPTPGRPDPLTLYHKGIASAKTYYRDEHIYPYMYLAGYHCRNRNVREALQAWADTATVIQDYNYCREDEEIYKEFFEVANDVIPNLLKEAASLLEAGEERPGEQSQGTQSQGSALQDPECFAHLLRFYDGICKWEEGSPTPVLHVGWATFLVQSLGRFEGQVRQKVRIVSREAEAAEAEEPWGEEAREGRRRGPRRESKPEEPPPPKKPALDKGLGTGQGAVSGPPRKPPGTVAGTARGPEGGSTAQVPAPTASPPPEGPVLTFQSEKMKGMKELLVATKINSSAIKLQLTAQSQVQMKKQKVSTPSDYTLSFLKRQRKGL

Row | Structure (SMILES) | IC50 (MV4-11 cells) | further results
1 | CNS(=O)(=O)N[C@H]1CC[C@H](CN2CCC3(CC2)CN(c2ncncc2Oc2ccc(F)cc2C(=O)N(C(C)C)C2CC2)C3)OC1 (stereo in doubt) [Example 146, N-Cyclopropyl-5-fluoro-N-isopropyl-2-((4-(7-(((2R,5S)-5-((N-methylsulfamoyl)amino)tetrahydro-2H-pyran-2-yl)methyl)-2,7-diazaspiro[3.5]nonan-2-yl)pyrimidin-5-yl)oxy)benzamide] | < 100 nM | –
2 | CCNS(=O)(=O)N[C@H]1CC[C@H](CN2CCC3(CC2)CN(c2ncnnc2Oc2ccc(F)cc2C(=O)N(CC(F)(F)F)C(C)C)C3)OC1 (stereo in doubt) [Example 193, 2-((5-(7-(((2R,5S)-5-((N-Ethylsulfamoyl)amino)tetrahydro-2H-pyran-2-yl)methyl)-2,7-diazaspiro[3.5]nonan-2-yl)-1,2,4-triazin-6-yl)oxy)-5-fluoro-N-isopropyl-N-(2,2,2-trifluoroethyl)benzamide] | < 100 nM | –
3 | CC(C)N(CC(F)(F)F)C(=O)c1cc(F)ccc1Oc1nncnc1N1CC2(CCN(C[C@H]3CC[C@H](NS(=O)(=O)N4CCC4)CO3)CC2)C1 (stereo in doubt) [Example 194, 2-((5-(7-(((2R,5S)-5-(Azetidine-1-sulfonamido)tetrahydro-2H-pyran-2-yl)methyl)-2,7-diazaspiro[3.5]nonan-2-yl)-1,2,4-triazin-6-yl)oxy)-5-fluoro-N-isopropyl-N-(2,2,2-trifluoroethyl)benzamide] | < 100 nM | –
4 | CC(C)N(CC(F)F)C(=O)c1cc(F)ccc1Oc1cncnc1N1CC2(CCN(C[C@@H]3CC[C@@H](NS(=O)(=O)c4nn(C)cc4F)CO3)CC2)C1 [Compound 241, N-(2,2-Difluoroethyl)-5-fluoro-2-((4-(7-(((2S,5R)-5-((4-fluoro-1-methyl-1H-pyrazole)-3-sulfonamido)tetrahydro-2H-pyran-2-yl)methyl)-2,7-diazaspiro[3.5]nonan-2-yl)pyrimidin-5-yl)oxy)-N-isopropylbenzamide] | – | hERG % Remaining 30 μM (hERG): ++ (“++” means ≥33% and <66%); Ki (Menin-MLL): < 1 nM
5 | CC(C)N(C(=O)c1cc(F)ccc1Oc1cncnc1N1CC2(CCN(C[C@@H]3CC[C@@H](NS(=O)(=O)N4CCC4)CO3)CC2)C1)C1COC1 [Compound 248, 2-((4-(7-(((2S,5R)-5-(Azetidine-1-sulfonamido)tetrahydro-2H-pyran-2-yl)methyl)-2,7-diazaspiro[3.5]nonan-2-yl)pyrimidin-5-yl)oxy)-5-fluoro-N-isopropyl-N-(oxetan-3-yl)benzamide] | – | hERG % Remaining 30 μM (hERG): +++ (“+++” means ≥66%); Ki (Menin-MLL): < 1 nM
6 | CC(C)N(C(=O)c1cc(F)ccc1Oc1cncnc1N1CC2(CCN(C[C@@H]3CC[C@@H](NS(=O)(=O)N(C)C)CO3)CC2)C1)C1COC1 [Compound 249, 2-((4-(7-(((2S,5R)-5-((N,N-Dimethylsulfamoyl)amino)tetrahydro-2H-pyran-2-yl)methyl)-2,7-diazaspiro[3.5]nonan-2-yl)pyrimidin-5-yl)oxy)-5-fluoro-N-isopropyl-N-(oxetan-3-yl)benzamide] | – | hERG % Remaining 30 μM (hERG): +++ (“+++” means ≥66%); Ki (Menin-MLL): < 1 nM
7 | CCS(=O)(=O)N[C@@H]1CC[C@@H](CN2CCC3(CC2)CN(c2ncncc2Oc2ccc(F)cc2C(=O)N(C(C)C)[C@@H]2CC[C@@H]2O)C3)OC1 [Compound 258, 2-((4-(7-(((2S,5R)-5-(Ethylsulfonamido)tetrahydro-2H-pyran-2-yl)methyl)-2,7-diazaspiro[3.5]nonan-2-yl)pyrimidin-5-yl)oxy)-5-fluoro-N-((1R,2S)-2-hydroxycyclobutyl)-N-isopropylbenzamide] | – | hERG % Remaining 10 μM (hERG; 10 μM compound): +++ (“+++” means ≥66%); hERG % Remaining 30 μM (hERG): ++ (“++” means ≥33% and <66%); EC50 (Menin-MLL): < 50 nM; Ki (Menin-MLL): < 1 nM
8 | CCN(C(=O)c1cc(F)ccc1Oc1cncnc1N1CC2(CCN(C[C@@H]3CC[C@@H](NS(C)(=O)=O)CO3)CC2)C1)C(C)C [Example 1, N-Ethyl-5-fluoro-N-isopropyl-2-((4-(7-(((2S,5R)-5-(methylsulfonamido)tetrahydro-2H-pyran-2-yl)methyl)-2,7-diazaspiro[3.5]nonan-2-yl)pyrimidin-5-yl)oxy)benzamide] | < 100 nM | –
9 | CCN(C(=O)c1cc(F)ccc1Oc1cncnc1N1CC2(CCN(C[C@@H]3CC[C@@H](NS(=O)(=O)CC)CO3)CC2)C1)C(C)C [Example 2, N-Ethyl-2-((4-(7-(((2S,5R)-5-(ethylsulfonamido)tetrahydro-2H-pyran-2-yl)methyl)-2,7-diazaspiro[3.5]nonan-2-yl)pyrimidin-5-yl)oxy)-5-fluoro-N-isopropylbenzamide] | < 100 nM | –
10 | CCN(C(=O)c1cc(F)ccc1Oc1cncnc1N1CC2(CCN(C[C@@H]3CC[C@@H](NS(=O)(=O)C(C)C)CO3)CC2)C1)C(C)C [Example 3, N-Ethyl-5-fluoro-N-isopropyl-2-((4-(7-(((2S,5R)-5-((1-methylethyl)sulfonamido)tetrahydro-2H-pyran-2-yl)methyl)-2,7-diazaspiro[3.5]nonan-2-yl)pyrimidin-5-yl)oxy)benzamide] | < 100 nM | –
11 | CCN(C(=O)c1cc(F)ccc1Oc1cncnc1N1CC2(CCN(C[C@@H]3CC[C@@H](NS(=O)(=O)C4CC4)CO3)CC2)C1)C(C)C [Example 4, 2-((4-(7-(((2S,5R)-5-(Cyclopropanesulfonamido)tetrahydro-2H-pyran-2-yl)methyl)-2,7-diazaspiro[3.5]nonan-2-yl)pyrimidin-5-yl)oxy)-N-ethyl-5-fluoro-N-isopropylbenzamide] | < 100 nM | –
12 | CCN(C(=O)c1cc(F)ccc1Oc1cncnc1N1CC2(CCN(C[C@@H]3CC[C@@H](NS(=O)(=O)C4COC4)CO3)CC2)C1)C(C)C [Example 5, N-Ethyl-5-fluoro-N-isopropyl-2-((4-(7-(((2S,5R)-5-(oxetane-3-sulfonamido)tetrahydro-2H-pyran-2-yl)methyl)-2,7-diazaspiro[3.5]nonan-2-yl)pyrimidin-5-yl)oxy)benzamide] | < 100 nM | –
13 | CCN(C(=O)c1cc(F)ccc1Oc1cncnc1N1CC2(CCN(C[C@@H]3CC[C@@H](NS(=O)(=O)C4CCC4)CO3)CC2)C1)C(C)C [Example 6, 2-((4-(7-(((2S,5R)-5-(Cyclobutanesulfonamido)tetrahydro-2H-pyran-2-yl)methyl)-2,7-diazaspiro[3.5]nonan-2-yl)pyrimidin-5-yl)oxy)-N-ethyl-5-fluoro-N-isopropylbenzamide] | < 100 nM | –
14 | CCN(C(=O)c1cc(F)ccc1Oc1cncnc1N1CC2(CCN(C[C@@H]3CC[C@@H](NS(=O)(=O)CC4CC4)CO3)CC2)C1)C(C)C [Example 7, 2-((4-(7-(((2S,5R)-5-((Cyclopropylmethyl)sulfonamido)tetrahydro-2H-pyran-2-yl)methyl)-2,7-diazaspiro[3.5]nonan-2-yl)pyrimidin-5-yl)oxy)-N-ethyl-5-fluoro-N-isopropylbenzamide] | < 100 nM | –
15 | CCN(C(=O)c1cc(F)ccc1Oc1cncnc1N1CC2(CCN(C[C@@H]3CC[C@@H](NS(=O)(=O)CCOC)CO3)CC2)C1)C(C)C [Example 8, N-Ethyl-5-fluoro-N-isopropyl-2-((4-(7-(((2S,5R)-5-((2-methoxyethyl)sulfonamido)tetrahydro-2H-pyran-2-yl)methyl)-2,7-diazaspiro[3.5]nonan-2-yl)pyrimidin-5-yl)oxy)benzamide] | < 100 nM | –
